Measurements: US20240384268A1, “Oligonucleotides” (Hudson Institute of Medical Research, priority 2021, published 2024)

Molecular target: T1, TLR8 (Homo sapiens, UniProt Q9NR97)
T1 sequence (Q9NR97 27-1041): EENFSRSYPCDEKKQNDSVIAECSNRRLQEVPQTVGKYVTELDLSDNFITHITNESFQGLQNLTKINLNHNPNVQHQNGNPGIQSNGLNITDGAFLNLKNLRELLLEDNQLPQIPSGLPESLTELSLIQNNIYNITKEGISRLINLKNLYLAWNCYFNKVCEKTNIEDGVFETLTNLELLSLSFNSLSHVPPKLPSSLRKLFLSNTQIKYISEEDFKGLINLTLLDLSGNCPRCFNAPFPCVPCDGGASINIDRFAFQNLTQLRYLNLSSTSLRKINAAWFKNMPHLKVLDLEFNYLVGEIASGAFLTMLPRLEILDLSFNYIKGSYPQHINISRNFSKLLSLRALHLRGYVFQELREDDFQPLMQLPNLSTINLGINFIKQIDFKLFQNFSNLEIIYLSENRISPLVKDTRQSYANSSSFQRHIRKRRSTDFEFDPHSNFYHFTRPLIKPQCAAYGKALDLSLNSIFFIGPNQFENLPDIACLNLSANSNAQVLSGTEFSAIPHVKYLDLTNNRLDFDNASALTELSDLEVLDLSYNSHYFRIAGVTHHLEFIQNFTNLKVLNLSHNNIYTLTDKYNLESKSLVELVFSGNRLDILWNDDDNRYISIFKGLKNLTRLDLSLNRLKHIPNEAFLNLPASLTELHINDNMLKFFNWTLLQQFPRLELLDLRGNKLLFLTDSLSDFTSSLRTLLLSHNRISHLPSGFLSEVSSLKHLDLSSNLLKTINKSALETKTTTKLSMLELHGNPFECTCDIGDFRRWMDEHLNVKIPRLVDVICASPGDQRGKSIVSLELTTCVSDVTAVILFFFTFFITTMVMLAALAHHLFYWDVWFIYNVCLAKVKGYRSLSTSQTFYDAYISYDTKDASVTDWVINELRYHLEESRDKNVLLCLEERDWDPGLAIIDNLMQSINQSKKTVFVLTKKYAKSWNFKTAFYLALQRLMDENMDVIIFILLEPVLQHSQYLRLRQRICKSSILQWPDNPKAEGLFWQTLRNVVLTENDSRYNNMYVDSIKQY
Test: HEK-TLR8 NF-κB-luciferase reporter, R848 or Motolimod stimulation (potentiation or inhibition)
Type: cell-based
Set-up: expressed in transfected cells; host or cells: 293XLhTLR8 (HEK293)
Conditions: relative to R848 only; for TLR8 100 nM (averaged NF-κB-Luciferase level relative to R848 condition, fold increase): ASO 100 nM; for TLR8 500 nM (averaged NF-κB-Luciferase level relative to R848 condition, fold increase): ASO 500 nM

| Sequence | TLR8 100 nM (averaged NF-κB-Luciferase level relative to R848 condition, fold increase) | TLR8 500 nM (averaged NF-κB-Luciferase level relative to R848 condition, fold increase) |
| --- | --- | --- |
| GAAAGGTTATGCAAGG (antisense; LNA-modified, pattern not given here) [CTNN2B-916 LNA KL] | 1.156 | 4.110 |
| GACTATACGCGCAATA (antisense; LNA-modified, pattern not given here) [NC5 LNA PS 3-10-3] | 0.777 | 3.376 |
| GAGGTCTTGGCTTCGT (antisense; LNA-modified, pattern not given here) [MB21D1-525 LNA V1] | 0.574 | 0.642 |
| GATGGCCTCCCATCTC (antisense; LNA-modified, pattern not given here) [HPRT LNA-331 V1] | 0.278 | 0.186 |
| GCACACTTCGTACCCA (antisense; LNA-modified, pattern not given here) [CAMSAP1-4915 LNA V1] | 0.319 | 1.091 |
| GCACTTCAGTCTGAGC (antisense; LNA-modified, pattern not given here) [MB21D1-719 LNA KL] | 0.495 | 0.864 |
| GGAGGTCTTGGCTTCG (antisense; LNA-modified, pattern not given here) [MB21D1-526 LNA V1] | 0.575 | 0.882 |
| GGCACTTTGCCTCCTT (antisense; LNA-modified, pattern not given here) [EGFR-2859 LNA V1] | 0.652 | 0.862 |
| GGCTCGGCTTGCCTAC (antisense; LNA-modified, pattern not given here) [CAMSAP1-5594 LNA V1] | 0.374 | 0.706 |
| GGTCATTACAATAGCT (antisense; LNA-modified, pattern not given here) [HPRT LNA-475 KL] | 0.500 | 1.381 |
| GGTCTTGGCTTCGTGG (antisense; LNA-modified, pattern not given here) [MB21D1-523 LNA V1] | 0.616 | 1.386 |
| GTCAAGGGCATATCCT (antisense; LNA-modified, pattern not given here) [HPRT LNA-732 KL] | 0.543 | 2.301 |
| GTCCTTGCACGTGGCT (antisense; LNA-modified, pattern not given here) [EGFR-1015 LNA V1] | 0.570 | 0.936 |
| GTCTCTGGAGCTTCCT (antisense; LNA-modified, pattern not given here) [CAMSAP1-2456 LNA V1] | 0.764 | 2.402 |
| GTCTTCATCGGCCCTG (antisense; LNA-modified, pattern not given here) [CAMSAP1-2113 LNA V1] | 0.664 | 2.086 |
| GTGATCTTGACATGCT (antisense; LNA-modified, pattern not given here) [EGFR-2790 LNA KL] | 0.583 | 1.806 |
| GTGATGGCCTCCCATC (antisense; LNA-modified, pattern not given here) [HPRT LNA-333 V1] | 0.517 | 1.112 |

| Sequence | TLR8 100 nM (averaged NF-κB-Luciferase level relative to R848 condition, fold increase) | TLR8 500 nM (averaged NF-κB-Luciferase level relative to R848 condition, fold increase) |
| --- | --- | --- |
| TACTTTCCGAGGTGTC (antisense; LNA-modified, pattern not given here) [CAMSAP1-1739 LNA KL] | 0.417 | 1.585 |
| TCCACAATCAAGACAT (antisense; LNA-modified, pattern not given here) [HPRT LNA-551 KL] | 0.474 | 0.893 |
| TCCATACCCAAGGCAT (antisense; LNA-modified, pattern not given here) [CTNN2B-2446 LNA V1] | 0.595 | 1.334 |
| TCCGCCCAAAGGGAAC (antisense; LNA-modified, pattern not given here) [HPRT LNA-1027 KL] | 0.541 | 0.725 |
| TCCTTGCACGTGGCTT (antisense; LNA-modified, pattern not given here) [EGFR-1014 LNA V1] | 0.491 | 0.601 |
| TCGTGGGGTCCTTTTC (antisense; LNA-modified, pattern not given here) [HPRT LNA-660 V1] | 0.778 | 2.966 |
| TCTTCATCGGCCCTGC (antisense; LNA-modified, pattern not given here) [CAMSAP1-2112 LNA V1] | 0.595 | 1.393 |
| TCTTGGCTTCGTGGAG (antisense; LNA-modified, pattern not given here) [MB21D1-521 LNA V1] | 0.541 | 0.197 |
| TGACAAAGATTCACTG (antisense; LNA-modified, pattern not given here) [HPRT LNA-1353 KL] | 0.633 | 1.756 |
| TGACTGTCTTGAGGGT (antisense; LNA-modified, pattern not given here) [MB21D1-1483 LNA KL] | 0.973 | 3.210 |
| TGCTCCTCGGTCTCCC (antisense; LNA-modified, pattern not given here) [CAMSAP1-1850 LNA V1] | 1.097 | 4.771 |
| TGGTCCACAACCCCTT (antisense; LNA-modified, pattern not given here) [MB21D1-697 LNA V1] | 0.559 | 1.454 |
| TGGTGGCCACCCATCT (antisense; LNA-modified, pattern not given here) [CTNN2B-2479 LNA V1] | 0.464 | 0.604 |
| TGTCCTTGCACGTGGC (antisense; LNA-modified, pattern not given here) [EGFR-1016 LNA V1] | 0.636 | 1.158 |
| TGTCTGGAAGCTTCCT (antisense; LNA-modified, pattern not given here) [CTNN2B-808 LNA V1] | 0.600 | 0.871 |
| TTCAGGCGCTGCCTTG (antisense; LNA-modified, pattern not given here) [CAMSAP1-2709 LNA V1] | 0.479 | 0.764 |
